Structures are written as SMILES. Entries after “also recorded” stand apart in the source; their conditions may differ.

Holding throughout (type): cell-based, human
The test system of one assay is MV411 cells. Put plainly: Annexin V binding (AVB) flow cytometry apoptosis assay. Particulars: MV411; 3 μM, time-dependent beginning at 5-7 days. The method, then:
(§1) For the Annexin V apoptosis assay, 1×10^6 SYC-522-, EPZ004777- or DMSO-treated cells were washed in PBS, resuspended in Ca/HEPES buffer (10 mM HEPES, pH7.4; 140 mM NaCl; 2.5 mM CaCl2) and incubated with Annexin V-APC (BD Pharmingen, San Jose, Calif.) for 30 min then analyzed by flow cytometry.
(§2) Cells were harvested at each re-plating of the cell proliferation assay described above then split for simultaneous analysis of apoptosis, cell cycle, and differentiation. Apoptosis was determined by Annexin V binding (AVB) flow cytometry assay. The harvested cells were re-suspended in 1×AVB buffer, stained with APC-conjugated Annexin V (BD), then analyzed by flow cytometry. For cell cycle analysis, cells were pelleted, washed in PBS with 0.5% bovine serum albumin, then fixed in 70% ice-cold methanol. The fixed cells were then incubated in PBS with 100 μg/mL RNAse (Invitrogen) for 15 minutes in a 37° C. water bath. Propidium iodide (PI) in PBS at a final concentration of 25 μg/mL was then added and the cells were analyzed by flow cytometry. For differentiation, cells were pelleted, and stained with APC-conjugated CD14 then washed and re-suspended in media containing PI to exclude dead cells. All analyses were performed using an LSR II flow cytometer (BD biosciences) and the data were analyzed using FlowJo (TreeStar, V8.8.7).

Assay [1] has as its system OCI AML2 cells. The assay is described as above. As to the method: as §1, §2
Assay [2] deals with OCI AML3 cells. The assay is described as above. As to the method: as §1, §2
Assay [3] has as its system OCI AML2 cells. The assay is described as follows: Cell differentiation analysis, CD14 flow cytometry. Particulars: 3 μM. As to the method: (§3) Cell differentiation analysis was performed by staining with fluorescently labeled marker for cell differentiation, CD14 followed by flow cytometry. Propidium iodide was added prior to flow cytometry analysis to exclude dead cells.
as §2

The subject of assay [4] is OCI AML3 cells. The assay is described as follows: Cell differentiation analysis, CD14 flow cytometry. Particulars: 3 μM. As to the method:
as §3, §2

Assay [5] concerns H3K79me2 in OCI AML3 cells. The assay is described as follows: Immunoblot analysis of cellular H3K79 methylation.

On to `CC(C)N(CCCNC(=O)Nc1ccc(C(C)(C)C)cc1)C[C@H]1O[C@@H](n2ccc3c(N)ncnc32)[C@H](O)[C@@H]1O` [EPZ004777], for which the “induction of apoptosis (Annexin V binding)” value in the assay on MV411 cells is listed as “substantial induction of apoptosis”; in the assay on OCI AML2 cells [1] (3 μM, time course) it was “minimal induction of apoptosis that plateaued at 7 days of therapy”; with OCI AML2 cells [1] (increasing concentrations), “dose-dependent induction of apoptosis”; with OCI AML3 cells [2] (3 μM, time-dependent beginning at 5-7 days), “substantial induction of apoptosis”; in the assay with OCI AML3 cells [2] (increasing concentrations), “dose-dependent induction of apoptosis”. Also, the “differentiation, CD14 expression” value with OCI AML2 cells [3] is “increased expression of the mature monocyte marker, CD14; also recorded: increased expression of the mature monocyte marker CD14; also recorded: significant increase in CD14-positive cells”; with OCI AML3 cells [4], “increased expression of the mature monocyte marker, CD14; also recorded: increased expression of the mature monocyte marker CD14; also recorded: significant increase in CD14-positive cells”. In addition, in assay [5], the “cellular H3K79 methylation” value was “inhibited in a dose- and time-dependent fashion”.

Values taken from patent publication US20170335402A1, “DOT1L INHIBITORS AND USES THEREOF” (Baylor College of Medicine, priority 2014, published 2017).
